Results taken from patent US3959252A, “Alkamoyl-josamycins” (Yamanouchi Pharmaceutical Co., Ltd., priority 1968, dated 1976).
Like-named read-outs stand apart in the source and are kept apart here.

Legend:
[1] = system: Staphylococcus aureus No. 226 strain; test: Protection of mice from subcutaneous Staphylococcal infection; format: in vivo; conditions: 48 hours, control 88.2
Experimental: Experimental procedure: Groups of 5 mice were inoculated subcutaneously in the back with 10^8 cells (in 0.1 ml volume) of Staphylococcus aureus No. 226 strain. Immediately after the infection, Josamycin or monoacetyl-josamycin-2 was administered orally. To the control group, no medicament was administered. After 48 hours, the animals were killed. The skin of the back of each mouse was cut open, and the size of subcutaneous abscess was measured.

[2] = Josamycin base, as described; cited from earlier work
[3] = system: Staphylococcus aureus Smith; test: Protection of mice from systemic staphylococcal infection; format: in vivo; conditions: 5 mice, control 0 of 10
Text: Experimental procedure: Group of 5 mice were inoculated intraperitoneally with 1000 MLD (containing 5% of mucin added) of Staphylococcus aureus Smith. Immediately after the infection, a single dose of each antibiotic was given orally. The survival of mice after 7 days was observed. The group for control (10 mice) was given no antibiotic.

[4] = titrated in aqueous methanol; base form; cited from earlier work
[5] = system: Staphylococcus aureus PC, SM, TC, EM, SA resistant; test: MIC, agar dilution on nutrient agar; format: cell-based; conditions: acetylated Josamycins as Josamycin equivalent, read-out: Minimum Inhibitory Concentration (MIC)
Experimental: (§1) Experimental procedure: Minimum inhibitory concentrations (MIC) were determined as to Josamycin, monoacetyl-josamycin-1, monoacetyl-josamycin-2and diacetyl-josamycin, according to usual agar dilution method on nutrient agar.

[6] = system: Staphylococcus aureus PC, CP, TC, SA resistant; test: MIC, agar dilution on nutrient agar; format: cell-based; conditions: acetylated Josamycins as Josamycin equivalent, read-out: Minimum Inhibitory Concentration (MIC)
Experimental: as §1

Salmonella typhi H 901W = test: MIC, agar dilution on nutrient agar; format: cell-based; conditions: Salmonella enterica, read-out: Minimum Inhibitory Concentration (MIC)
Experimental: as §1

Mycobacterium 607 = test: MIC, agar dilution on nutrient agar; format: cell-based; conditions: acetylated Josamycins as Josamycin equivalent, read-out: Minimum Inhibitory Concentration (MIC)
Experimental: as §1

[7] = system: Staphylococcus aureus FDA 209P Smith; test: MIC, agar dilution on nutrient agar; format: cell-based; conditions: FDA209P, acetylated Josamycins as Josamycin equivalent, read-out: Minimum Inhibitory Concentration (MIC)
Experimental: as §1

[8] = system: Bacillus subtilis ATCC 6635; test: MIC, agar dilution on nutrient agar; format: cell-based; conditions: ATCC6635, acetylated Josamycins as Josamycin equivalent, read-out: Minimum Inhibitory Concentration (MIC)
Experimental: as §1

Escherichia coli PCI 602 = test: MIC, agar dilution on nutrient agar; format: cell-based; conditions: PCI602, acetylated Josamycins as Josamycin equivalent, read-out: Minimum Inhibitory Concentration (MIC)
Experimental: as §1

[9] = system: Shigella flexneri 2a 1675; test: MIC, agar dilution on nutrient agar; format: cell-based; conditions: 2A1675, acetylated Josamycins as Josamycin equivalent, read-out: Minimum Inhibitory Concentration (MIC)
Experimental: as §1

[10] = system: Staphylococcus aureus FDA 209P; test: MIC, agar dilution on nutrient agar; format: cell-based; conditions: FDA209P, acetylated Josamycins as Josamycin equivalent, read-out: Minimum Inhibitory Concentration (MIC)
Experimental: as §1

[11] = system: staphylococci resistant to streptothricin, telomycin, streptomycin, chloramphenicol, or penicillin; conditions: cited from earlier work
pKa' measurement = format: physicochemical; conditions: 40% aqueous methanol
Text: 4. pKa' less than 6 (measured in 40% aqueous methanol)
4. pKa 7.03 (measured in 40% aqueous methanol)

[12] = 200 mg/kg oral (as Josamycin equivalent)
[13] = 50 mg/kg oral single dose (as Josamycin equivalent)
[14] = 150 mg/kg oral single dose (as Josamycin equivalent)
[15] = 500 mg/kg oral single dose (as Josamycin equivalent)

SMILES | Size of abscess [1, 12] [mm^2] | Survival on 7th day (number of mice) [3, 13] | Survival on 7th day (number of mice) [3, 14] | Survival on 7th day (number of mice) [3, 15] | MIC [5] [µg/mL] | MIC [6] [µg/mL] | MIC (Salmonella typhi H 901W) [µg/mL] | MIC (Mycobacterium 607) [µg/mL] | MIC [7] [µg/mL] | MIC [8] [µg/mL] | MIC (Escherichia coli PCI 602) [µg/mL] | MIC [9] [µg/mL] | MIC [10] [µg/mL] | pKa (pKa' measurement; read-out: pKa') | Solubility (easily soluble solvents) (Solubility) | Solubility (hardly soluble solvents) (Solubility) | Solubility (soluble solvents) (Solubility) | other results
CO[C@@H]1[C@@H](O[C@@H]2O[C@H](C)[C@@H](O[C@H]3C[C@@](C)(O)[C@@H](OC(=O)CC(C)C)[C@H](C)O3)[C@H](N(C)C)[C@H]2O)[C@@H](CC=O)C[C@@H](C)[C@@H](O)/C=C/C=C/C[C@@H](C)OC(=O)C[C@H]1OC(C)=O [Josamycin] | 4.19 | 0 | 2 | 5 | > 100 | 0.78 | > 100 | 3.1 | 0.39 | 0.39 | > 100 | 50 | 0.39 | – | – | – | – | Size of abscess ([1]; 50 mg/kg oral): 21.2 mm^2; Solubility (easily soluble solvents) [2]: easily soluble in acidic water, methanol, ethanol, chloroform, ethyl acetate, and acetone; Solubility (slightly soluble solvents) [2]: slightly soluble in water, petroleum ether, ligroin, and n-hexane; Solubility (soluble solvents) [2]: soluble in benzene, ether and carbon tetrachloride; pKa' [4]: 7.1; Inhibition of growth of resistant staphylococci [11]: inhibits the growth
COC1C(OC(C)=O)CC(=O)OC(C)C/C=C/C=C/C(OC(C)=O)C(C)CC(CC=O)C1OC1OC(C)C(OC2CC(C)(O)C(OC(=O)CC(C)C)C(C)O2)C(N(C)C)C1O (centres unmarked) [Monoacetyl-josamycin-2, monoacetyl-josamycin-2] | 0.64 | 0 | 3 | 5 | > 100 | 0.78 | > 100 | 3.1 | 0.39 | 0.39 | > 100 | 50 | 0.39 | 7.03 | easily soluble in acetone, chloroform, methanol, ethyl acetate and ethylether | hardly soluble in water, petroleum ether and n-hexane | soluble in carbon tetrachloride | –
COC1C(OC(C)=O)CC(=O)OC(C)C/C=C/C=C/C(OC(C)=O)C(C)CC(CC=O)C1OC1OC(C)C(OC2CC(C)(O)C(OC(=O)CC(C)C)C(C)O2)C(N(C)C)C1OC(C)=O (centres unmarked) [Diacetyl-josamycin, diacetyl-josamycin] | – | – | – | – | > 100 | 0.78 | > 100 | 3.1 | 0.39 | 0.39 | > 100 | 50 | 0.39 | – | – | – | – | pKa (pKa' measurement): < 6
COC1C(OC(C)=O)CC(=O)OC(C)C/C=C/C=C/C(O)C(C)CC(CC=O)C1OC1OC(C)C(OC2CC(C)(O)C(OC(=O)CC(C)C)C(C)O2)C(N(C)C)C1OC(C)=O (centres unmarked) [Monoacetyl-josamycin-1, 2'-acetyl-josamycin] | – | – | – | – | > 100 | 0.78 | > 100 | 3.1 | 0.39 | 0.39 | > 100 | 50 | 0.39 | < 6 | easily soluble in acetone, methylethylketone, chloroform, ethyl acetate and benzene | hardly soluble in water, petroleum ether and n-hexane | soluble in methanol and ethanol | –
